Test results reported in US20240199587A1, “HETEROCYCLIC COMPOUNDS” (Hoffmann-La Roche Inc., priority 2021, published 2024).
pIC50: −log10 of the molar value.

target: T1, MAGL (Homo sapiens, UniProt Q99685); assay: 2-AG assay (MAGL inhibitory activity, hydrolysis of 2-arachidonoylglycerol to arachidonic acid followed by mass spectrometry); type: biochemical; conditions: 8 μM 2-arachidonoylglycerol, 15 min pre-incubation, 30 min incubation at RT, RapidFire MS readout
T1 sequence (Q99685 1-303): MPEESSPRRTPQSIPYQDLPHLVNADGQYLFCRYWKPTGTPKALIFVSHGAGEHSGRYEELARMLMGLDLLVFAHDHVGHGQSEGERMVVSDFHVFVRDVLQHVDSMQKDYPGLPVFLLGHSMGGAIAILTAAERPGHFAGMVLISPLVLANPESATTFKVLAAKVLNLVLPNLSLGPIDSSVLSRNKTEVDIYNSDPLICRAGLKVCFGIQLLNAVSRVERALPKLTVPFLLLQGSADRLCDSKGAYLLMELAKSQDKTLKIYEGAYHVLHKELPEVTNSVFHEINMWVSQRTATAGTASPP
How it was run: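 Human MAGL ([…] final) pre-incubated 15 min at RT with compound in 50 mM TRIS, 1 mM EDTA, 0.01% Tween-20, 2.5% DMSO; 8 μM 2-AG then added for 30 min at RT. Acetonitrile quench with d8-arachidonic acid; arachidonic acid measured by RapidFire SPE–MS/MS, activity from arachidonic acid/d8 ratio.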

SMILES | pIC50
CS(=O)(=O)c1cc(C(F)(F)F)ccc1C1CC2(C1)CN(C(=O)N1CC3(CC(Cc4ccc(F)cc4F)C3)C1)C2 [Example 347, [6-[(2,4-difluorophenyl)methyl]-2-azaspiro[3.3]heptan-2-yl]-[6-[2-methylsulfonyl-4-(trifluoromethyl)phenyl]-2-azaspiro[3.3]heptan-2-yl]methanone] | 6.08
O=C(N1CC2(CC(Cc3ccc(Cl)cn3)C2)C1)N1CC2(C1)CN(c1cncc(F)c1)C2 [Example 348, [6-[(5-chloro-2-pyridyl)methyl]-2-azaspiro[3.3]heptan-2-yl]-[6-(5-fluoro-3-pyridyl)-2,6-diazaspiro[3.3]heptan-2-yl]methanone] | 7.18
CC(C)(C)Cn1nncc1-c1ccc(C2CN(C(=O)N3CC4(C3)CN(c3cncc(F)c3)C4)C2)cc1 [Example 349, [3-[4-[3-(2,2-dimethylpropyl)triazol-4-yl]phenyl]azetidin-1-yl]-[6-(5-fluoro-3-pyridyl)-2,6-diazaspiro[3.3]heptan-2-yl]methanone] | 7.92
CS(=O)(=O)c1cc(Cl)ccc1-c1ccc(C2CN(C(=O)N3CC4(C3)CN(c3cncc(F)c3)C4)C2)cc1 [Example 350, [3-[4-(4-chloro-2-methylsulfonyl-phenyl)phenyl]azetidin-1-yl]-[6-(5-fluoro-3-pyridyl)-2,6-diazaspiro[3.3]heptan-2-yl]methanone] | 7.89
O=C(N1CC2(CC(n3cnc(C(F)(F)F)n3)C2)C1)N1CC2(CN(Cc3ccc(S(=O)(=O)C(F)(F)F)cc3)C2)C1 [Example 353, [6-[[4-(trifluoromethylsulfonyl)phenyl]methyl]-2,6-diazaspiro[3.3]heptan-2-yl]-[6-[3-(trifluoromethyl)-1,2,4-triazol-1-yl]-2-azaspiro[3.3]heptan-2-yl]methanone] | 8.62
CS(=N)(=O)c1cc(F)ccc1CC1CC2(C1)CN(C(=O)N1CC3(CC(n4cnc(C5(O)CC5)n4)C3)C1)C2 (stereo not shown) [Example 354, [6-[[4-fluoro-2-(methylsulfonimidoyl)phenyl]methyl]-2-azaspiro[3.3]heptan-2-yl]-[6-[3-(1-hydroxycyclopropyl)-1,2,4-triazol-1-yl]-2-azaspiro[3.3]heptan-2-yl]methanone] | 7.72
Cc1cc(C2CC2)n(C23CC(C4CN(C(=O)N5CC6(CC(n7cnc(C8(O)CC8)n7)C6)C5)C4)(C2)C3)n1 [Example 355, [3-[3-(5-cyclopropyl-3-methyl-pyrazol-1-yl)-1-bicyclo[1.1.1]pentanyl]azetidin-1-yl]-[6-[3-(1-hydroxycyclopropyl)-1,2,4-triazol-1-yl]-2-azaspiro[3.3]heptan-2-yl]methanone] | 6.87
Cc1cc(C)n(C23CC(C4CN(C(=O)N5CC6(CC(n7cnc(C8(O)CC8)n7)C6)C5)C4)(C2)C3)n1 [Example 356, [3-[3-(3,5-dimethylpyrazol-1-yl)-1-bicyclo[1.1.1]pentanyl]azetidin-1-yl]-[6-[3-(1-hydroxycyclopropyl)-1,2,4-triazol-1-yl]-2-azaspiro[3.3]heptan-2-yl]methanone] | 5.96
O=C(N1CC2(CC(Cc3ccc4[nH]ncc4n3)C2)C1)N1CC2(CC(n3cnc(C4CC4)n3)C2)C1 [Example 357, [6-(3-cyclopropyl-1,2,4-triazol-1-yl)-2-azaspiro[3.3]heptan-2-yl]-[6-(1H-pyrazolo[4,3-b]pyridin-5-ylmethyl)-2-azaspiro[3.3]heptan-2-yl]methanone] | 8.70
O=C(N1CC2(CC(Cc3ccc(F)cc3F)C2)C1)N1CC2(CC(c3ccc(C(F)(F)F)nc3)C2)C1 [Example 358, [6-[(2,4-difluorophenyl)methyl]-2-azaspiro[3.3]heptan-2-yl]-[6-[6-(trifluoromethyl)-3-pyridyl]-2-azaspiro[3.3]heptan-2-yl]methanone] | 7.51
CS(=O)(=O)c1cc(CC2CC3(C2)CN(C(=O)N2CC4(CC(n5cnc(C6(O)CC6)n5)C4)C2)C3)cc(C(F)(F)F)c1 [Example 359, [6-[3-(1-hydroxycyclopropyl)-1,2,4-triazol-1-yl]-2-azaspiro[3.3]heptan-2-yl]-[6-[[3-methylsulfonyl-5-(trifluoromethyl)phenyl]methyl]-2-azaspiro[3.3]heptan-2-yl]methanone] | 9.00
O=C(N1CC2(CC(n3cnc(C4(O)CC4)n3)C2)C1)N1CC2(CC[C@@H](Cc3cccc(S(=O)(=O)C(F)(F)F)c3)C2)C1 [Example 360, [6-[3-(1-hydroxycyclopropyl)-1,2,4-triazol-1-yl]-2-azaspiro[3.3]heptan-2-yl]-[(6S)-6-[[3-(trifluoromethylsulfonyl)phenyl]methyl]-2-azaspiro[3.4]octan-2-yl]methanone] | 9.89
O=C(N1CC2(CC(n3cnc(C4(O)CC4)n3)C2)C1)N1CC2(CC[C@H](Cc3cccc(S(=O)(=O)C(F)(F)F)c3)C2)C1 [Example 361, [6-[3-(1-hydroxycyclopropyl)-1,2,4-triazol-1-yl]-2-azaspiro[3.3]heptan-2-yl]-[(6R)-6-[[3-(trifluoromethylsulfonyl)phenyl]methyl]-2-azaspiro[3.4]octan-2-yl]methanone] | 9.68

Other lines, results leading:

pIC50 | SMILES
8.76 | O=C(N1CC2(CC(n3cnc(C4(O)CC4)n3)C2)C1)N1CC2(CC[C@@H](Cc3ccc(S(=O)(=O)C(F)(F)F)cc3)C2)C1 [Example 362, [6-[3-(1-hydroxycyclopropyl)-1,2,4-triazol-1-yl]-2-azaspiro[3.3]heptan-2-yl]-[(6S)-6-[[4-(trifluoromethylsulfonyl)phenyl]methyl]-2-azaspiro[3.4]octan-2-yl]methanone]
8.87 | O=C(N1CC2(CC(n3cnc(C4(O)CC4)n3)C2)C1)N1CC2(CC[C@H](Cc3ccc(S(=O)(=O)C(F)(F)F)cc3)C2)C1 [Example 363, [6-[3-(1-hydroxycyclopropyl)-1,2,4-triazol-1-yl]-2-azaspiro[3.3]heptan-2-yl]-[(6R)-6-[[4-(trifluoromethylsulfonyl)phenyl]methyl]-2-azaspiro[3.4]octan-2-yl]methanone]
8.74 | O=C(N1CC2(CC(Cc3ccc(S(=O)(=O)C4CC4)cc3)C2)C1)N1CC2(CC(n3cnc(C4(O)CC4)n3)C2)C1 [Example 364, [6-[(4-cyclopropylsulfonylphenyl)methyl]-2-azaspiro[3.3]heptan-2-yl]-[6-[3-(1-hydroxycyclopropyl)-1,2,4-triazol-1-yl]-2-azaspiro[3.3]heptan-2-yl]methanone]
8.74 | N#Cc1cc(CC2CC3(C2)CN(C(=O)N2CC4(CC(n5cnc(C6(O)CC6)n5)C4)C2)C3)ccc1C(F)(F)F [Example 365, 5-[[2-[6-[3-(1-hydroxycyclopropyl)-1,2,4-triazol-1-yl]-2-azaspiro[3.3]heptane-2-carbonyl]-2-azaspiro[3.3]heptan-6-yl]methyl]-2-(trifluoromethyl) benzonitrile]
7.85 | CS(=O)(=O)c1cc(Cl)ccc1-c1ccc(C2CN(C(=O)N3CC4(CC(c5cncc(F)c5)C4)C3)C2)cc1 [Example 366, [3-[4-(4-chloro-2-methylsulfonyl-phenyl)phenyl]azetidin-1-yl]-[6-(5-fluoro-3-pyridyl)-2-azaspiro[3.3]heptan-2-yl]methanone]
8.62 | O=C(N1CC2(CC(Cc3ncc(Cl)cc3F)C2)C1)N1CC2(CC(n3cnc(C4(O)CC4)n3)C2)C1 [Example 367, [6-[(5-chloro-3-fluoro-2-pyridyl)methyl]-2-azaspiro[3.3]heptan-2-yl]-[6-[3-(1-hydroxycyclopropyl)-1,2,4-triazol-1-yl]-2-azaspiro[3.3]heptan-2-yl]methanone]
